Source: article PMC7481357, “N-terminal Myristoylation Enhanced the Antimicrobial Activity of Antimicrobial Peptide PMAP-36PW” (Frontiers in Cellular and Infection Microbiology, 2020)
Residues, ends and D or L forms follow the SMILES beside them. *: point of attachment. Myristoyl = CCCCCCCCCCCCCC(=O)*

Legend:
P. aeruginosa GIM 1.551 [1] = assay: Inhibition zone assay (disk diffusion); assay type: cell-based, Pseudomonas aeruginosa; design: key: +, means the peptide has antibacterial activity; settings: disk 10 μg peptide, 18 h at 37°C, * P < 0.05, ** P < 0.01 vs PMAP-36PW
Experimental: The inhibition zone assay was performed through the disk diffusion to evaluate the antimicrobial activity of Myr-36PW in vitro (Dunne et al., [2017]). The four above-mentioned bacterial strains were used as experimental strains, with L. monocytogenes CICC 21634 cultured in BHI medium, and P. aeruginosa GIM 1.551 cultured in TSB medium. The bacterial cells were cultured for 12 h at 37°C in the appropriate medium, and the bacterial cell suspension was spread on LB agar. The disks containing 10 μg of peptides (1 μg/μL) were attached to the solid medium and incubated at 37°C for 18 h. Finally the diameter of the inhibition zone was measured.

[2] = tested on: S. aureus ATCC 25923, S. typhimurium SL 1344, and P. aeruginosa GIM 1.551; assay: Biofilm eradication assay (crystal violet and colony count); assay type: cell-based; settings: 128 μg/mL, n = 5
Experimental: The biofilm-eradicating ability of Myr-36PW was determined against S. aureus ATCC 25923, S. typhimurium SL 1344, and P. aeruginosa GIM 1.551 (Chen et al., [2018]; de Breij et al., [2018]). In brief, 200 μL of bacterial dilution (1 × 10^6 CFU/mL) was added into a 96-well plate and incubated for 24 h at 37°C to form a biofilm, which was washed three times with PBS. Subsequently, 200 μL of peptides at 128 μg/mL were added to the wells. After incubation for 1 h at 37°C, the OD of each well was measured at 620 nm by crystal violet staining. The wells were gently washed three times with PBS after 1 h incubation to evaluate the killing effect of Myr-36PW against bacteria in the biofilm. Afterward, 100 μL of suspension was serially diluted and spread on LB agar plates, and bacterial colony was measured.
Figure 6 Biofilm inhibition and eradication of Myr-36PW. (A–C) Inhibition of biofilm formation by Myr-36PW. (D) Eradication of preformed biofilm by Myr-36PW. (E) Killing effect of Myr-36PW against biofilm bacteria. Inhibition rate % = [1 – OD620 nm(peptides)/OD620 nm(bacteria)] × 100%. Biofilm mass % = OD620 nm(peptides)/OD620 nm(control) × 100%. The control group was bacterial culture without peptides. Data represent the mean ± SD (n = 5).

P. aeruginosa GIM 1.551 [3] = assay: Wound infection model; assay type: in vivo, BALB/c mice; settings: 20 μL, 1 μg/μL, once a day for 7 days
Experimental: Sixty mice with ten mice in each group were used in the experiment. Infection and treatment were performed as previously described (Hong et al., [2017]). The mouse dorsal region with a diameter of 3.0 cm was treated with hair pusher, and a full-thickness 2.0 cm diameter wound was created by excising the skin and infected by direct seeding with P. aeruginosa GIM 1.551 (1 × 10^8 CFU/mL, 50 μL). The wound was then covered with sterile gauze to prevent cross contamination. Treatment was initiated at 24 h after bacterial inoculation. The mice with no infection and treatment was used as a blank control, those provided with PBS (20 μL) as the negative control group, those administered with ampicillin sodium (20 μL, 1 μg/μL) as the positive control group, and the remaining were those treated with the three peptides (20 μL, 1 μg/μL) once a day for 7 days as the treatment groups. The mice were sacrificed after the 7 day treatment. Changes in the wound were observed, and the infected sections of skin were aseptically contained, homogenized, and serially diluted. Bacterial CFU counts were obtained.
Figure 11 Treatment value of wound by Myr-36PW in vivo. A 2 cm wound was cut with a knife and directly injected with P. aeruginosa GIM 1.551. (A) Wound changes of mice after 7 days treatment. (B) Bacterial CFU in the wound area treated for 7 days under different experimental conditions. AS is ampicillin sodium. Data represent the mean Log (CFU) ± SD of five individual experiments. *P < 0.05 and **P < 0.01, compared with PBS. ^#P < 0.05, compared with PMAP-36PW.

CCCCCCCCCCCCCC(=O)NCC(=O)NCC(=O)N[C@@H](CCCNC(=N)N)C(=O)N[C@@H](Cc1ccccc1)C(=O)N[C@@H](CCCNC(=N)N)C(=O)N[C@@H](CCCNC(=N)N)C(=O)N[C@@H](CC(C)C)C(=O)N[C@@H](CCCNC(=N)N)C(=O)N[C@@H](CCCCN)C(=O)N[C@@H](CCCCN)C(=O)N[C@H](C(=O)N[C@@H](CCCNC(=N)N)C(=O)N[C@@H](CCCCN)C(=O)N[C@@H](CCCNC(=N)N)C(=O)N[C@@H](CC(C)C)C(=O)N[C@@H](CCCCN)C(=O)N[C@@H](CCCCN)C(=O)N[C@H](C(=O)NCC(=O)N[C@@H](CCCCN)C(=O)N[C@H](C(=O)N[C@@H](CC(C)C)C(=O)N[C@@H](CCCCN)C(=O)N[C@@H](Cc1c[nH]c2ccccc12)C(=O)N[C@H](C(=O)N[C@@H](Cc1c[nH]c2ccccc12)C(=O)N[C@@H](Cc1c[nH]c2ccccc12)C(=O)N[C@H](C(=O)N[C@H](C(=O)NCC(=O)N[C@@H](CO)C(=O)N[C@H](C(=O)N1CCC[C@H]1C(=O)N[C@@H](CC(C)C)C(=O)NCC(=O)N[C@@H](CS)C(=O)NCC(=O)O)[C@@H](C)CC)C(C)C)[C@@H](C)CC)[C@@H](C)CC)C(C)C)[C@@H](C)CC)[C@@H](C)O [Myr-36PW] (Myristoyl-GGRFRRLRKKTRKRLKKIGKVLKWIWWIVGSIPLGCG-OH; C-terminus assumed)
In vitro antibacterial activity (disk diffusion) (P. aeruginosa GIM 1.551 [1]): +**
Eradication of preformed biofilm ([2]; 1 h at 37°C on 24 h biofilm, crystal violet OD 620 nm): only eradicated the preformed biofilm in Gram-negative bacteria
Killing effect against biofilm bacteria ([2]; 1 h at 37°C, colony count): bacterial killing effect except against S. aureus ATCC 25923
Wound size (P. aeruginosa GIM 1.551 [3]): significantly reduced
Bacterial CFU in the wound area (P. aeruginosa GIM 1.551 [3]; vs PBS group: PMAP-36PW P < 0.05, Myr-36PW and ampicillin sodium P < 0.01, n = 5): significantly reduced
